Experimental data taken from ChEMBL document CHEMBL4627412.

Legend:
[1] = target: Human immunodeficiency virus type 1 protease (Human immunodeficiency virus 1, UniProt Q72874); test: Inhibition of HIV1 NL4-3 protease expressed in Escherichia coli TAP-106 cells using EDANS/DABCYL-labelled 10-amino acid containing protease cleavage site as substrate preincubated for 1 hr followed by substrate addition and measured for 60 mins by FRET assay
Protease [2] = target: Protease (Human immunodeficiency virus 1, UniProt Q9YQ12, I84V); test: Inhibition of HIV1 NL4-3 protease I84V mutant expressed in Escherichia coli TAP-106 cells using EDANS/DABCYL-labelled 10-amino acid containing protease cleavage site as substrate preincubated for 1 hr followed by substrate addition and measured for 60 mins by FRET assay
Protease [3] = target: Protease (Human immunodeficiency virus 1, UniProt Q9YQ12, A71V/I50V); test: Inhibition of HIV1 NL4-3 protease I50V/A71V mutant expressed in Escherichia coli TAP-106 cells using EDANS/DABCYL-labelled 10-amino acid containing protease cleavage site as substrate preincubated for 1 hr followed by substrate addition and measured for 60 mins by FRET assay
[4] = system: Human immunodeficiency virus 1; test: Antiviral activity against wild-type HIV1 NL4-3 infected in human TZM-bl cells infected with supernatants from virus-infected human 293T cells treated with compound for 18 hrs assessed as reduction in viral replication by luciferase assay; type: functional, organism-based; settings: Human immunodeficiency virus 1, NL4-3, 18 h

Sequence of Protease (Human immunodeficiency virus 1, UniProt Q9YQ12, A71V/I50V) (Q9YQ12 entry or part of it A71V/I50V): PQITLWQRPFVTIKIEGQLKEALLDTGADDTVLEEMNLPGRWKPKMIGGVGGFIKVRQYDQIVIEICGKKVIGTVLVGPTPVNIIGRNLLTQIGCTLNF
Sequence of Protease (Human immunodeficiency virus 1, UniProt Q9YQ12, I84V) (Q9YQ12 entry or part of it I84V): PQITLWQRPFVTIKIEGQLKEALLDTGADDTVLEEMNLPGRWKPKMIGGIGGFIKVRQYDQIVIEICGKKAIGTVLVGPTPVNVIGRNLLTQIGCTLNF

| Compound | Ki [1] [nM] | Ki (Protease [2]) [nM] | Ki (Protease [3]) [nM] | EC50 [4] [nM] |
| --- | --- | --- | --- | --- |
| COC(=O)N[C@H](C(=O)N[C@@H](Cc1ccccc1)[C@@H](O)C[C@H](Cc1ccccc1)NC(=O)O[C@H]1CO[C@H]2OCC[C@H]21)C(C)(C)C | 0.018 | 0.208 | 0.273 | 11 |
| COC(=O)N[C@H](C(=O)N[C@@H](Cc1ccccc1)[C@@H](O)C[C@H](Cc1ccccc1)NC(=O)O[C@H]1CO[C@H]2OCC[C@H]21)C(C)C | 0.074 | 0.302 | 0.295 | 55 |
| COC(=O)N[C@H](C(=O)N[C@@H](Cc1ccccc1)C[C@H](O)[C@H](Cc1ccccc1)NC(=O)O[C@H]1CO[C@H]2OCC[C@H]21)C(C)(C)C | 0.013 | 0.372 | 0.072 | 39 |
| CC[C@@H](C)[C@H](NC(=O)OC)C(=O)N[C@@H](Cc1ccccc1)[C@@H](O)C[C@H](Cc1ccccc1)NC(=O)O[C@H]1CO[C@H]2OCC[C@H]21 | 0.027 | 0.091 | 0.029 | 240 |
| Cc1cccc(C)c1OCC(=O)N[C@@H](Cc1ccccc1)[C@@H](O)C[C@H](Cc1ccccc1)NC(=O)O[C@H]1CO[C@H]2OCC[C@H]21 | 0.017 | 0.069 | 0.072 | 38 |
| COC(=O)N[C@H](C(=O)N[C@@H](Cc1ccccc1)C[C@H](O)[C@H](Cc1ccccc1)NC(=O)O[C@H]1CO[C@H]2OCC[C@H]21)C1CCCC1 | 0.161 | 1.18 | 1.39 | – |
| COC(=O)N[C@@H](C)C(=O)N[C@@H](Cc1ccccc1)[C@@H](O)C[C@H](Cc1ccccc1)NC(=O)O[C@H]1CO[C@H]2OCC[C@H]21 | 0.019 | 0.069 | 0.073 | 66 |
| COC(=O)NC1(C(=O)N[C@@H](Cc2ccccc2)[C@@H](O)C[C@H](Cc2ccccc2)NC(=O)O[C@H]2CO[C@H]3OCC[C@H]32)CCCC1 | 46 | 236 | 484 | – |
| COC(=O)N[C@H](C(=O)N[C@@H](Cc1ccccc1)[C@@H](O)C[C@H](Cc1ccccc1)NC(=O)O[C@H]1CO[C@H]2OCC[C@H]21)C1CC1 | 0.571 | 1.82 | 1.66 | – |
| Cc1cccc(C)c1OCC(=O)N[C@@H](Cc1ccccc1)C[C@H](O)[C@H](Cc1ccccc1)NC(=O)O[C@H]1CO[C@H]2OCC[C@H]21 | 0.037 | 0.259 | – | 16 |
| COC(=O)NC1(C(=O)N[C@@H](Cc2ccccc2)C[C@H](O)[C@H](Cc2ccccc2)NC(=O)O[C@H]2CO[C@H]3OCC[C@H]32)CCCC1 | 7.3 | 191 | 40 | – |
| CC[C@H](C)[C@H](NC(=O)OC)C(=O)N[C@@H](Cc1ccccc1)[C@@H](O)C[C@H](Cc1ccccc1)NC(=O)O[C@H]1CO[C@H]2OCC[C@H]21 | 0.055 | 0.198 | 0.56 | 70 |
| COC(=O)N[C@H](C(=O)N[C@@H](Cc1ccccc1)[C@@H](O)C[C@H](Cc1ccccc1)NC(=O)O[C@H]1CO[C@H]2OCC[C@H]21)C1CCCC1 | 0.235 | 0.71 | 2.35 | – |
| Cc1cccc(C)c1OCC(=O)N[C@@H](Cc1ccccc1)[C@@H](O)C[C@H](Cc1ccccc1)NC(=O)[C@H](C(C)C)N1CCCNC1=O [LOPINAVIR] | – | – | – | 12 |
